Consider 14 compounds from ChEMBL document CHEMBL1201862, “PubChem BioAssay data set” (2004).

Test systems include 786-0; COLO 205; DMS-114; HL-60; K562; LXFL 529; NCI-H460; SF-295; SF-539; SK-MEL-2; TK-10; UO-31; XF498; HCT-15; OVCAR-4; BT-549; Hs-578T; MCF7; NCI/ADR-RES; PC-3.
Holding throughout (test): DTP human tumour cell line panel, 48 h

Broadly, the GI50 is the concentration that inhibits growth by half.

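Five compound concentrations were applied to cells in 96-well plates for 48 hours; endpoints were derived by simple linear interpolation of the resulting dose-response curve. GI50: concentration for 50% inhibition of growth.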 Calls of active or inactive are those of the source. Cut-off read from the data, not from the text of the source: active = GI50 up to about 1.1 µM and inactive = higher.

Consider `C/C(CC(=O)Nc1ccc(C)cc1)=N\NC(N)=S`, for which the GI50 in the assay with 786-0 is > 100 µM (inactive); with COLO 205, > 100 µM (inactive); in the assay with DMS-114 it was > 100 µM (inactive); with HL-60, > 100 µM (inactive); in the assay on K562 it was 64.4 µM (inactive); with LXFL 529 it was 72.3 µM (inactive). Further, the GI50 with NCI-H460, in the assay with SF-295, in the assay on SF-539, with SK-MEL-2, in the assay with TK-10 and in the assay with UO-31 was > 100 µM (inactive) each time. Besides, in the assay on XF498, the GI50 is > 100 µM (inactive).

On to `[N-]=[N+]=NC1(Cc2ccccc2)C(=O)c2cccc3c2N(CCC3)C1=O` (stereo not drawn), for which the GI50 in the assay on 786-0 was > 100 µM (inactive); in the assay with COLO 205 it was > 100 µM (inactive); with DMS-114, > 100 µM (inactive); with HCT-15, > 100 µM; with HL-60, > 100 µM (inactive); with K562, > 100 µM (inactive). Further, the GI50 in the assay with LXFL 529, with NCI-H460, with OVCAR-4, with SF-295, in the assay on SF-539 and in the assay on SK-MEL-2 was > 100 µM (inactive) in each case. Also, the GI50 in the assay with TK-10 and in the assay with UO-31 was > 100 µM (inactive) in each case.

For `Cn1cccc1/C=C/c1cc(Br)c(/C=C/c2cccn2C)cc1Br`, the GI50 in the assay on 786-0 was 6.12 µM (inactive); with COLO 205, 13.2 µM (inactive); with DMS-114 it was 11.6 µM (inactive); in the assay on HCT-15, 8.75 µM; in the assay with HL-60, 13.6 µM (inactive); in the assay on K562, 16.7 µM (inactive). In addition, the GI50 with LXFL 529 is 12.3 µM (inactive); in the assay on NCI-H460, 17.9 µM (inactive); in the assay with OVCAR-4, 5.4 µM (inactive); with SF-295, 20.9 µM (inactive); in the assay on SF-539, 14.6 µM (inactive); in the assay on SK-MEL-2, 14.6 µM (inactive). Also, the GI50 was 22.5 µM (inactive) in the assay with TK-10 and 15.2 µM (inactive) in the assay on UO-31.

As to `Cc1cn(C2C=CC(=O)C(C)O2)c(=O)[nH]c1=O` (stereo not drawn), the GI50 is 18 µM (inactive) with 786-0; 17.5 µM (inactive) in the assay with COLO 205; 14.7 µM (inactive) in the assay with HL-60; 10.6 µM (inactive) in the assay with K562; 14.8 µM (inactive) in the assay on LXFL 529; 17.9 µM (inactive) in the assay on NCI-H460. In addition, the GI50 with SF-295 is 17.5 µM (inactive); with SF-539 it was 18.7 µM (inactive); in the assay with TK-10 it was 15.1 µM (inactive); in the assay on UO-31 it was 14.5 µM (inactive); in the assay with XF498 it was 13.5 µM (inactive).

On to `Cc1nc2c(C)c3c([nH]c4ccc(Cl)cc43)c(C)c2c(O)c1C`, for which the GI50 with 786-0 was 3.99 µM (inactive); in the assay on BT-549, 14.9 µM (inactive); with COLO 205, 5.53 µM (inactive); in the assay with DMS-114, 19.8 µM (inactive); in the assay with HCT-15, 3.21 µM; with HL-60 it was 2.24 µM (inactive). Besides, the GI50 is 15.9 µM (inactive) in the assay on Hs-578T; 7.5 µM (inactive) with K562; 2.2 µM (inactive) with MCF7; 2.07 µM (inactive) with NCI-H460; 8.39 µM (inactive) in the assay with NCI/ADR-RES; 7.24 µM (inactive) in the assay with OVCAR-4. The GI50 is 5.89 µM (inactive) in the assay on PC-3; 5.89 µM (inactive) with SF-295; 6.21 µM (inactive) in the assay on SF-539; 65.2 µM (inactive) with SK-MEL-2; 7.33 µM (inactive) with TK-10; 3.66 µM (inactive) with UO-31. Further, in the assay on XF498, the GI50 was 43.2 µM (inactive).

Turning to `Nc1nc(O)c2nc(N)n(Cc3ccccc3)c2n1`, the GI50 was > 100 µM (inactive) in the assay on 786-0; > 100 µM (inactive) in the assay on COLO 205; > 100 µM (inactive) in the assay on DMS-114; > 100 µM with HCT-15; > 100 µM (inactive) with HL-60; > 100 µM (inactive) with K562. Further, the GI50 with LXFL 529, in the assay with NCI-H460, in the assay on OVCAR-4, in the assay with SF-295, with SK-MEL-2 and in the assay on TK-10 was > 100 µM (inactive) throughout. Further, the GI50 in the assay on UO-31 and in the assay with XF498 was > 100 µM (inactive) each time.

In the case of `COc1ccc(S(=O)(=O)Nc2ccccc2C(=O)O)cc1`, the GI50 in the assay with 786-0 was > 100 µM (inactive); in the assay on COLO 205 it was > 100 µM (inactive); with HCT-15 it was > 100 µM; in the assay on HL-60, > 100 µM (inactive); with K562, > 100 µM (inactive); with LXFL 529, > 100 µM (inactive). The GI50 in the assay with NCI-H460, in the assay with OVCAR-4, in the assay on SF-295, with SF-539, in the assay on SK-MEL-2 and with TK-10 was > 100 µM (inactive) throughout. Besides, the GI50 in the assay with UO-31 and in the assay on XF498 was > 100 µM (inactive) each time.

As for `O=C1C2C3C=C4c5ccccc5N(c5ccccc5)C4(C2C(=O)N1c1ccccc1)C1C(=O)N(c2ccccc2)C(=O)C31` (stereo not drawn), the GI50 is > 100 µM (inactive) with 786-0; 35.6 µM (inactive) with COLO 205; > 100 µM (inactive) in the assay on DMS-114; > 100 µM with HCT-15; > 100 µM (inactive) with HL-60; > 100 µM (inactive) with K562. The GI50 was > 100 µM (inactive) in the assay with LXFL 529; 4.05 µM (inactive) with NCI-H460; > 100 µM (inactive) in the assay on SF-295; > 100 µM (inactive) in the assay on SK-MEL-2; > 100 µM (inactive) in the assay on TK-10; > 100 µM (inactive) with UO-31. The GI50 in the assay with XF498 was 37 µM (inactive).

With `Cc1cc2c(cc1C)[n+]([O-])c(C(=O)C/C(=N/OCCCc1ccccc1)C(=O)Nc1cc(Cl)ccc1Cl)c(C)[n+]2[O-]`, the GI50 in the assay on 786-0 was > 100 µM (inactive); with COLO 205, > 100 µM (inactive); with HCT-15, > 100 µM; in the assay on HL-60, > 100 µM (inactive); with K562, > 100 µM (inactive); in the assay on LXFL 529 it was > 100 µM (inactive). Besides, the GI50 with NCI-H460 is > 100 µM (inactive); in the assay with OVCAR-4 it was > 100 µM (inactive); in the assay on SF-295, > 100 µM (inactive); with SF-539, > 100 µM (inactive); with SK-MEL-2 it was 0.0562 µM (active); with TK-10 it was > 100 µM (inactive). Also, the GI50 in the assay on XF498 was > 100 µM (inactive).

In the case of `CC(C)c1cccc(=O)c(O)c1`, the GI50 with 786-0 was 3.4 µM (inactive); in the assay on COLO 205, 1.37 µM (inactive); in the assay on DMS-114 it was 2.24 µM (inactive); in the assay with HCT-15, 1.54 µM; with HL-60, 2.02 µM (inactive); in the assay on K562 it was 2.21 µM (inactive). The GI50 is 1.47 µM (inactive) with LXFL 529; 2.27 µM (inactive) with NCI-H460; 2.56 µM (inactive) in the assay on OVCAR-4; 3.39 µM (inactive) in the assay on SF-295; 3.21 µM (inactive) with SF-539; 5.68 µM (inactive) in the assay on SK-MEL-2. Besides, the GI50 in the assay with TK-10 is 1.25 µM (inactive); in the assay on UO-31, 3.94 µM (inactive).

For `CC(=O)OCC(=O)[C@@]12OC(C)(C)O[C@@H]1C[C@H]1[C@@H]3CC(C=O)=C4C=C(OCCCl)CC[C@]4(C)[C@@]3(F)[C@@H](O)C[C@@]12C` [FORMOCORTAL], the GI50 with 786-0 was 16.1 µM (inactive); in the assay with COLO 205, 18 µM (inactive); with DMS-114, > 100 µM (inactive); in the assay on HCT-15, 11.6 µM; in the assay with HL-60 it was 15.9 µM (inactive); with K562, 4.74 µM (inactive). The GI50 in the assay on NCI-H460 is 14.1 µM (inactive); in the assay on OVCAR-4, 19.9 µM (inactive); in the assay with SF-295, 5.42 µM (inactive); in the assay on SF-539, 17.6 µM (inactive); with SK-MEL-2, 20.7 µM (inactive); with TK-10, 33.9 µM (inactive). Besides, the GI50 in the assay with UO-31 was 32.2 µM (inactive); in the assay with XF498 it was 15.1 µM (inactive).

Consider `O=C1c2c(c3c4ccccc4n4c3c3c2c2ccccc2n3C/C=C\C4)C(=O)N1Cc1ccccc1`, for which the GI50 in the assay with 786-0 was > 100 µM (inactive); with COLO 205, > 100 µM (inactive); with HCT-15 it was > 100 µM; in the assay with HL-60, > 100 µM (inactive); in the assay with K562, > 100 µM (inactive); with LXFL 529, > 100 µM (inactive). Further, the GI50 in the assay with NCI-H460 is > 100 µM (inactive); in the assay on SF-295 it was > 100 µM (inactive); in the assay with SF-539, > 100 µM (inactive); in the assay on TK-10, > 100 µM (inactive); in the assay on UO-31 it was > 100 µM (inactive); in the assay on XF498, 31.3 µM (inactive).

For `COC1C=CC(C(=O)[N+]2=Cc3[nH]c4ccccc4c3CC2)O1` (stereo not drawn), the GI50 was > 100 µM (inactive) in the assay on 786-0; > 100 µM (inactive) in the assay on COLO 205; 66.4 µM (inactive) with DMS-114; 78.5 µM with HCT-15; 32.3 µM (inactive) with HL-60; 37.2 µM (inactive) with K562. The GI50 in the assay on LXFL 529 is 98.2 µM (inactive); in the assay with NCI-H460, 69.3 µM (inactive); in the assay on OVCAR-4 it was > 100 µM (inactive); with SF-295 it was > 100 µM (inactive); in the assay on SF-539, > 100 µM (inactive); with SK-MEL-2, > 100 µM (inactive). The GI50 in the assay with TK-10 and in the assay with UO-31 was > 100 µM (inactive) in each case.

As for `COc1ccc(C(=O)C(C(=O)CCC(=O)Nc2cccc(Cl)c2)c2ccc(OC)cc2)cc1` (stereo not drawn), the GI50 with 786-0 is > 100 µM (inactive); in the assay with COLO 205, > 100 µM (inactive); with HCT-15, > 100 µM; in the assay on HL-60 it was > 100 µM (inactive); with K562, > 100 µM (inactive); in the assay on LXFL 529 it was > 100 µM (inactive). Besides, the GI50 in the assay with NCI-H460, in the assay with OVCAR-4, with SF-295, in the assay on SF-539, in the assay on SK-MEL-2 and in the assay with TK-10 was > 100 µM (inactive) each time. The GI50 in the assay on UO-31 and in the assay on XF498 was > 100 µM (inactive) throughout.
